Molecules are shown by their SMILES.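 96-well plates; 48 h exposure; 5 concentrations. Endpoints by linear interpolation between flanking doses. Not reached: highest tested concentration assigned. GI50: concentration for 50% inhibition of growth.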 The source made the active and inactive calls. Cut-off read from the data, not from the text of the source: active = GI50 up to about 1.1 µM and inactive = higher. A value given as a limit tells only on which side of the number the result lay.

From ChEMBL document CHEMBL1201862, “PubChem BioAssay data set” (2004) come the findings set out here.

Some test systems named below: NCI-H522; A549; LOX IMVI; OVCAR-5; HT-29; SK-MEL-5; UACC-62; RPMI-8226; COLO 205; SK-MEL-28; HL-60; SK-OV-3; SF-268; SN12C; MOLT-4; A498; IGROV-1; KM12; OVCAR-8; M14.
Common to all, as to test: growth of human tumour cells (NCI), 48 h

`NC(CSC1(c2ccc(Cl)cc2)c2ccccc2-c2ccccc21)C(=O)O` (stereo not drawn): the GI50 in the test with NCI-H522 was 15.4 µM (inactive); in the test with A549, 31.3 µM (inactive); in the test with LOX IMVI, 16.7 µM (inactive); with OVCAR-5, 30.3 µM (inactive); with HT-29 it was 37.8 µM (inactive); in the test on SK-MEL-5 it was 16.2 µM (inactive). Also, the GI50 is 15.4 µM (inactive) with UACC-62; 12.3 µM (inactive) in the test with RPMI-8226; 15.5 µM (inactive) in the test on COLO 205; > 100 µM (inactive) with SK-MEL-28; 6.4 µM (inactive) in the test with HL-60; 25.1 µM (inactive) in the test on SK-OV-3. Further, the GI50 was 20.5 µM (inactive) in the test on SF-268; 19.1 µM (inactive) in the test on SN12C; 20 µM (inactive) in the test on MOLT-4; 17.1 µM (inactive) in the test on A498; 13.5 µM (inactive) in the test on IGROV-1; 24.1 µM (inactive) in the test with KM12. Further, the GI50 in the test on OVCAR-8 was 17.7 µM (inactive); in the test on M14, 26.4 µM (inactive).

In the case of `CC(C)(C)OC(=O)NC1CCC(C(C)(C)C)CC1` (stereo not drawn), the GI50 in the test with NCI-H522 is 85.1 µM (inactive); in the test with A549 it was 43.8 µM (inactive); in the test with LOX IMVI, 40.9 µM (inactive); in the test on OVCAR-5, > 100 µM (inactive); in the test on HT-29 it was 22.3 µM (inactive); in the test on SK-MEL-5, 27.7 µM (inactive). The GI50 with UACC-62 was 37.4 µM (inactive); in the test with RPMI-8226, 27.3 µM (inactive); in the test on COLO 205 it was > 65.5 µM (inactive); with SK-MEL-28 it was > 100 µM (inactive); in the test with HL-60 it was 15.2 µM (inactive); in the test on SK-OV-3, > 100 µM (inactive). Further, the GI50 is > 100 µM (inactive) in the test with SF-268; > 77.8 µM (inactive) with SN12C; 23.9 µM (inactive) with MOLT-4; > 100 µM (inactive) with A498; > 100 µM (inactive) with IGROV-1; > 81.7 µM (inactive) in the test on KM12. Besides, the GI50 in the test on OVCAR-8 was > 89.7 µM (inactive).

As to `CC(C)(C)OC(=O)NC(Cc1c[nH]cn1)C(=O)N1CCCC1C(N)=O` (stereo not drawn), the GI50 in the test with NCI-H522, in the test with A549, in the test on LOX IMVI, with OVCAR-5, in the test with HT-29 and in the test with SK-MEL-5 was > 100 µM (inactive) each time. Further, the GI50 with UACC-62, in the test with RPMI-8226, with COLO 205, in the test with SK-MEL-28, with HL-60 and in the test on SK-OV-3 was > 100 µM (inactive) each time. The GI50 in the test with SF-268, in the test with SN12C, in the test on MOLT-4, in the test on A498, in the test with IGROV-1 and in the test on KM12 was > 100 µM (inactive) throughout. In addition, the GI50 with OVCAR-8 and with M14 was > 100 µM (inactive) throughout.

Turning to `CC(=O)OC1C(O)C(C)OC(OC(=O)C2CCC3C(C2)OC2(CC(OC(=O)/C=C/c4ccccc4)C(C)CO2)C32CO2)C1OC1OC(C)C(O)C(O)C1O` (stereo not drawn), the GI50 in the test on NCI-H522 was 0.0325 µM (active); with A549 it was 0.118 µM (active); in the test on LOX IMVI, 0.115 µM (active); in the test with OVCAR-5, 0.091 µM (active); with HT-29, 0.0419 µM (active); with SK-MEL-5, 0.0332 µM (active). Further, the GI50 in the test on UACC-62 was 0.039 µM (active); with RPMI-8226, 0.0361 µM (active); in the test with COLO 205 it was 0.0341 µM (active); in the test with SK-MEL-28, 0.0355 µM (active); in the test on HL-60, 0.0336 µM (active); in the test with SK-OV-3, 0.0586 µM (active). Also, the GI50 was 0.0362 µM (active) with SF-268; 0.0514 µM (active) in the test with SN12C; 0.0337 µM (active) with MOLT-4; 0.0702 µM (active) with A498; 0.0378 µM (active) with IGROV-1; 0.0371 µM (active) with KM12. Moreover, the GI50 with OVCAR-8 was 0.0789 µM (active).

As to `O=C(O)CN1CCN(CC(=O)O)CCN(CC(=O)O)CC1`, the GI50 with NCI-H522 is 5.22 µM (inactive); in the test on A549, 3.03 µM (inactive); with LOX IMVI, > 24.1 µM (inactive); in the test with OVCAR-5, > 32 µM (inactive); in the test with HT-29 it was 3.55 µM (inactive); with SK-MEL-5 it was 2.79 µM (inactive). Also, the GI50 in the test on UACC-62 was 7.98 µM (inactive); with RPMI-8226, 5.36 µM (inactive); with COLO 205 it was 2.57 µM (inactive); in the test on SK-MEL-28, > 72.1 µM (inactive); in the test on HL-60 it was 1.69 µM (inactive); in the test on SK-OV-3, 8.38 µM (inactive). Further, the GI50 with SF-268 is 23.6 µM (inactive); in the test on SN12C it was > 100 µM (inactive); in the test with MOLT-4, 4.71 µM (inactive); in the test with A498 it was > 33.6 µM (inactive); with IGROV-1 it was 4.85 µM (inactive); in the test with KM12, 5.81 µM (inactive). The GI50 with OVCAR-8 was 4.07 µM (inactive); with M14 it was 38.3 µM (inactive).
